Reference: patent US10683282B2, “Multi-substituted pyrimidine derivatives with excellent kinase inhibitory activities” (KOREA INSTITUTE OF SCIENCE AND TECHNOLOGY, priority 2018, dated 2020)

Columns and labels:
CYP 2C19 = CYP 2C19 (Homo sapiens, UniProt P33261); experiment: CYP450 assay (luminescence); format: in vitro ADME; conditions: CYP 2C19 enzyme with substrate, compound at 10 μM, read-out: inhibitory activity against human CYP 2C19
Method: (§1) The resulting substance was reacted with NADPH for 20 minutes at 37° C. and a detection reagent was added to terminate the reaction. After stabilization at room temperature for 20 minutes, a luminescence signal was measured.

CYP 2D6 = CYP 2D6 (Homo sapiens, UniProt P10635); experiment: CYP450 assay (luminescence); format: in vitro ADME; conditions: CYP 2D6 enzyme with substrate, compound at 10 μM, read-out: inhibitory activity against human CYP 2D6
Sequence of CYP 2D6 (P10635 whole entry): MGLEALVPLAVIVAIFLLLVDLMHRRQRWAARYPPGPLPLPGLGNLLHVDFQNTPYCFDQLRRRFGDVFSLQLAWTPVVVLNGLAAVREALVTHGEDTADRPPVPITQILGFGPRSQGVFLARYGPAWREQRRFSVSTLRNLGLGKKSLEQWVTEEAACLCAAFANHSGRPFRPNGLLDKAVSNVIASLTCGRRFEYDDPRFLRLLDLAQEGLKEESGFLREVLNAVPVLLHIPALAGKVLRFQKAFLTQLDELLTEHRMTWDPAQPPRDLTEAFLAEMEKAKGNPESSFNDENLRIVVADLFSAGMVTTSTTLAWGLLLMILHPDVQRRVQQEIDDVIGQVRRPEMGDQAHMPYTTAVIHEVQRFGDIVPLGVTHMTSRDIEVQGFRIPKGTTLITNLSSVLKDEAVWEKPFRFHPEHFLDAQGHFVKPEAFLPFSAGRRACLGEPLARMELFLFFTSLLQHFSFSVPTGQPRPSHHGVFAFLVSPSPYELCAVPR
Method: as §1

CYP 2C9 = CYP 2C9 (Homo sapiens, UniProt P11712); experiment: CYP450 assay (luminescence); format: in vitro ADME; conditions: CYP 2C9 enzyme with substrate, compound at 10 μM, read-out: inhibitory activity against human CYP 2C9
Sequence of CYP 2C9 (P11712 whole entry): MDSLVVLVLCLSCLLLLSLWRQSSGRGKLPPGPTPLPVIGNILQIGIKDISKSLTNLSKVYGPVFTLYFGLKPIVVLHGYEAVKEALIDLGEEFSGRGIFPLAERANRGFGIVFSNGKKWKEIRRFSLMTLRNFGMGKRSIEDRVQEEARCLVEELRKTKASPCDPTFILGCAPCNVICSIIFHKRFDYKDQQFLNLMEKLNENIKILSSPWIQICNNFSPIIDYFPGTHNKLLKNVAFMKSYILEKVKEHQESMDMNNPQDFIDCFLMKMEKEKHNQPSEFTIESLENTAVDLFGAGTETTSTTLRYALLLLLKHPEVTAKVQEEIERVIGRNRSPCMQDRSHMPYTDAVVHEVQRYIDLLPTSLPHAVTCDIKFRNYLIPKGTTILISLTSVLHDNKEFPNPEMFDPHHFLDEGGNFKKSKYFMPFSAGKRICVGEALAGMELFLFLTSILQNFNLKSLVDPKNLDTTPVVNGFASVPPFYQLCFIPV
Method: as §1

NIH3T3 = experiment: Cytotoxicity test (cell counting kit-8); format: cell-based; conditions: Mus musculus, WST-8
Excerpt: (§2) Cell counting kit-8 assay is a general test method for identifying cell viability using a pale yellow tetrazolium salt called “WST-8”. WST-8, which is soluble in water, is degraded by a dehydrogenase present in the cells, forming orange formazan. Formazan dye is formed by dehydrogenase activity proportional to the number of viable cells, and thus can be used as an indicator for cell viability. The Hill equation of Graphpad Prism was used for analysis.

L929 = experiment: Cytotoxicity test (cell counting kit-8); format: cell-based; conditions: Mus musculus, WST-8
Excerpt: as §2

HFL-1 = experiment: Cytotoxicity test (cell counting kit-8); format: cell-based; conditions: Homo sapiens, HFL1, WST-8
Excerpt: as §2

VERO = experiment: Cytotoxicity test (cell counting kit-8); format: cell-based, African green monkey; conditions: Chlorocebus sabaeus, WST-8
Excerpt: as §2

[1] = Cytotoxicity test (cell counting kit-8), summary over respective cells; format: cell-based; conditions: African green monkey, human, mouse, Chinese hamster, NIH3T3 and CHO-K1 cells; criterion 10 μM; VERO, HFL-1, L929, NIH3T3, CHO-K1
Excerpt: as §2

Ba/F3 FLT3-ITD = Ba/F3 FLT3-ITD growth inhibition; format: cell-based; conditions: Ba/F3 FLT3-ITD cells
CYP 1A2 = CYP 1A2 (Homo sapiens, UniProt P05177); experiment: CYP450 assay (luminescence); format: in vitro ADME; conditions: human, CYP 1A2 enzyme with substrate; compound at 10 μM; read-out: inhibitory activity against human CYP 1A2
Sequence of CYP 1A2 (P05177 whole entry): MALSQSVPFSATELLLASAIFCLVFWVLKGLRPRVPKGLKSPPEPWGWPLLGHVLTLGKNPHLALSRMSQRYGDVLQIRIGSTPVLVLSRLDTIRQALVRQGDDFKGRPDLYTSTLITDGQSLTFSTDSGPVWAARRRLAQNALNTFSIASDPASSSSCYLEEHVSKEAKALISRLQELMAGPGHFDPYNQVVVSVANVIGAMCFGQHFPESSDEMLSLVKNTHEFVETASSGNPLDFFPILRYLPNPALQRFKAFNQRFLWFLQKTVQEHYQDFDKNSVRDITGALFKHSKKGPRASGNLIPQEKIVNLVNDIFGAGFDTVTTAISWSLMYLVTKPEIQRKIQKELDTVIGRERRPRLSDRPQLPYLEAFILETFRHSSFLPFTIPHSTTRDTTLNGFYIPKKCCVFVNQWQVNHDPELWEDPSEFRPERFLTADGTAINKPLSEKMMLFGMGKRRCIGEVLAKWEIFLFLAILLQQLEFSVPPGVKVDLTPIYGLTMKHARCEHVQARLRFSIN
Method: (§3) Compound 5 and a positive control stock solution were diluted with water to prepare a 40 μM working solution, and a solution containing an enzyme and a substrate was prepared using water and buffer. Compound 5/control/positive control and the solution were each dispensed on a 96-well and preincubated at 37° C. for 10 minutes. The resulting substance was reacted with NADPH for 20 minutes at 37° C. and a detection reagent was added to terminate the reaction. After stabilization at room temperature for 20 minutes, a luminescence signal was measured.

CYP 3A4 = CYP 3A4 (Homo sapiens, UniProt P08684); experiment: CYP450 assay (luminescence); format: in vitro ADME; conditions: CYP 3A4 enzyme with substrate, compound at 10 μM, read-out: inhibitory activity against human CYP 3A4
Sequence of CYP 3A4 (P08684 whole entry): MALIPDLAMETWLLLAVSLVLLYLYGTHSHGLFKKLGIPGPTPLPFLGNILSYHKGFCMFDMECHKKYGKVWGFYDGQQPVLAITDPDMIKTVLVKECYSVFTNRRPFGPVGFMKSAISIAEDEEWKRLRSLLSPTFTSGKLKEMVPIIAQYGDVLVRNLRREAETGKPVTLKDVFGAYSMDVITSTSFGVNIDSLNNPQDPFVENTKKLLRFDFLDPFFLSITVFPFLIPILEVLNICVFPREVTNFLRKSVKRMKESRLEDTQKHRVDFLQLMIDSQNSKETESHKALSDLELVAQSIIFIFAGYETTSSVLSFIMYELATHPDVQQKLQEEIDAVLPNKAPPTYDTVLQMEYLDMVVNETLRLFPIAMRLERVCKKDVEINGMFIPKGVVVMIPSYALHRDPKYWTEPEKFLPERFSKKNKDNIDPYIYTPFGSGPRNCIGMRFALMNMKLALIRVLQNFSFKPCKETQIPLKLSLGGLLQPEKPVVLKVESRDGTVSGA
Method: as §3

FLT3 = target: T1, FLT3 (Homo sapiens, UniProt P36888); experiment: Kinase screening, HotSpot assay (Reaction Biology); format: biochemical
T1 construct: purchased Reaction Biology Corporation
T1 sequence (P36888 27-993): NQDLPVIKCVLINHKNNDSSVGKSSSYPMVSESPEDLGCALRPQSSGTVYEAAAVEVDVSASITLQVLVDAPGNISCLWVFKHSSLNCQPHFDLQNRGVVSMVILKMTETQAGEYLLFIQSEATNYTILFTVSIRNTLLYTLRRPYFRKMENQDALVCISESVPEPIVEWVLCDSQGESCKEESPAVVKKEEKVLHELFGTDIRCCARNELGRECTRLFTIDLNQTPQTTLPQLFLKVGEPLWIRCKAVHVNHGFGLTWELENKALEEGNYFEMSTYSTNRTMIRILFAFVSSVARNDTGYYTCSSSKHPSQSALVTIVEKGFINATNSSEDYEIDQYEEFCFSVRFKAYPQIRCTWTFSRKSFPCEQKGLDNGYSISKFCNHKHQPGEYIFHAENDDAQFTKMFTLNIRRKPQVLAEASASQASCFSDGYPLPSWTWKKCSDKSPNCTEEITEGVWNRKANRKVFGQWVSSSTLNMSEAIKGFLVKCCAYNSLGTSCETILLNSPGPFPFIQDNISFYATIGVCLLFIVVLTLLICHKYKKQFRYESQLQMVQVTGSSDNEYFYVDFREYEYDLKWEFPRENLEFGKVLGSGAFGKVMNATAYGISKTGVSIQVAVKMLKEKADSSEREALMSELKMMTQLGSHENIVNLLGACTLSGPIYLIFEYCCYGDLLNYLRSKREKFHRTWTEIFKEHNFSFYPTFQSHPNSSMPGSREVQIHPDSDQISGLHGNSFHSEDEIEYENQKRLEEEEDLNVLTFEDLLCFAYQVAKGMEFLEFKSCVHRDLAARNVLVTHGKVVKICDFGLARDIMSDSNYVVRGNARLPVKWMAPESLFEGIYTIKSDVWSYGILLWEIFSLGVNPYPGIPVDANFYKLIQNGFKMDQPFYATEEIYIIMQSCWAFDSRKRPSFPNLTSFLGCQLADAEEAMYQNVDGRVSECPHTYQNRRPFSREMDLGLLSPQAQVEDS
Method: Kinase screening was performed using a “HotSpot” assay platform method by Reaction Biology Corporation. The reaction buffer used herein contained 20 mM HEPES (pH 7.5), 10 mM MgCl2, 1 mM EGTA, 0.02% Brij35, 0.02 mg/mL BSA, 0.1 mM Na3VO4, 2 mM DTT and 1% DMSO. The required cofactors were added in accordance with the kinase reaction. Freshly made buffer and cofactors were added at a concentration of 20 μM during the selected enzyme reaction. A solution of the test compound in dimethylsulfoxide (DMSO) was added at a suitable concentration to this solution.

Sequence of CYP 2C19 (P33261 whole entry): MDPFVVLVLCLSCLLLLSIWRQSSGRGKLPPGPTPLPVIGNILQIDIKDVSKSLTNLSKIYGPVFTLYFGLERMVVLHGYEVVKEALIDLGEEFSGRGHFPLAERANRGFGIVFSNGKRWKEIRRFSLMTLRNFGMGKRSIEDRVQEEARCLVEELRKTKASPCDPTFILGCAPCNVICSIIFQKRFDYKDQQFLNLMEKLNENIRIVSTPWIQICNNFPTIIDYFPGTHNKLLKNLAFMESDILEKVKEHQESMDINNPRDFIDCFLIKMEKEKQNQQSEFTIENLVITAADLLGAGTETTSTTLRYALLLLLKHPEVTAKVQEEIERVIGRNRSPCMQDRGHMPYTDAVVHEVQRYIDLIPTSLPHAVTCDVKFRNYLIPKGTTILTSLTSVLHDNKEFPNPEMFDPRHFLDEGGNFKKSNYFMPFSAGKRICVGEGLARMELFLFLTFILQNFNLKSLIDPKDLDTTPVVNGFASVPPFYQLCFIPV

inhibition at 20 min, 10 µM (CYP 2C19): 15.9% | inhibition at 20 min, 10 µM (CYP 2D6): 14.4% | inhibition at 20 min, 10 µM (CYP 2C9): < 1% | GI50 (Ba/F3 FLT3-ITD): 0.042 µM | inhibition at 20 min, 10 µM (CYP 1A2): 1.93% | inhibition at 20 min, 10 µM (CYP 3A4): 22.1% | IC50 (FLT3): 0.00287 µM
SMILES: Clc1cnc(Nc2ccc(OCCN3CCCC3)cc2)nc1NCc1ccco1 [Compound 5, 5-chloro-4-(furan-2-yl)methylamino-2-[4-{2-(pyrrolidin-1-yl)ethoxy}phenylamino]pyrimidine]
IC50 (NIH3T3): > 100 µM | IC50 (L929): 40.3 µM | IC50 (HFL-1): 35.6 µM | IC50 (VERO): 19.7 µM | IC50 [1]: ≥ 10 µM
